Results published in PubChem BioAssay (NCI).
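At the GI50, growth is halved. Definition used: TGI = concentration required for complete inhibition of growth.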

Legend:
Experiment in all cases: NCI anticancer screen, dose series, 384-well format; in the data active = GI50 below about 0.43 µM; inactive = the rest
SK-MEL-2 melanoma = tested on: SK-MEL-2 melanoma
LOX IMVI melanoma = tested on: LOX IMVI melanoma
A549 NSCLC = tested on: A549 NSCLC
IGROV1 ovarian = tested on: IGROV1 ovarian
OVCAR-8 ovarian = tested on: OVCAR-8 ovarian
K-562 leukemia = tested on: K-562 leukemia
RXF 393 renal = tested on: RXF 393 renal
EKVX NSCLC = tested on: EKVX NSCLC
M14 melanoma = tested on: M14 melanoma
RPMI-8226 leukemia = tested on: RPMI-8226 leukemia
HOP-62 NSCLC = tested on: HOP-62 NSCLC
COLO 205 colon = tested on: COLO 205 colon
CAKI-1 renal = tested on: CAKI-1 renal
NCI-H226 lung = tested on: NCI-H226 lung
CCRF-CEM leukemia = tested on: CCRF-CEM leukemia
DU-145 prostate = tested on: DU-145 prostate
SNB-75 CNS = tested on: SNB-75 CNS
SR leukemia = tested on: SR leukemia
NCI-H322M lung = tested on: NCI-H322M lung
NCI/ADR-RES ovarian = tested on: NCI/ADR-RES ovarian
SK-OV-3 ovarian = tested on: SK-OV-3 ovarian
SNB-19 CNS = tested on: SNB-19 CNS
MDA-MB-435 melanoma = tested on: MDA-MB-435 melanoma
NCI-H23 lung = tested on: NCI-H23 lung
UO-31 renal = tested on: UO-31 renal
SF-539 CNS = tested on: SF-539 CNS
KM12 colon = tested on: KM12 colon
TK-10 renal = tested on: TK-10 renal
HCC-2998 colon = tested on: HCC-2998 colon
OVCAR-4 ovarian = tested on: OVCAR-4 ovarian
HCT-15 colon = tested on: HCT-15 colon
U251 glioblastoma = tested on: U251 glioblastoma
SW-620 colon = tested on: SW-620 colon
UACC-62 melanoma = tested on: UACC-62 melanoma
MCF7 breast = tested on: MCF7 breast
SK-MEL-28 melanoma = tested on: SK-MEL-28 melanoma
HT29 colon = tested on: HT29 colon
OVCAR-3 ovarian = tested on: OVCAR-3 ovarian
SN12C renal = tested on: SN12C renal
BT-549 breast = tested on: BT-549 breast
A498 renal = tested on: A498 renal
NCI-H460 NSCLC = tested on: NCI-H460 NSCLC
UACC-257 melanoma = tested on: UACC-257 melanoma
MOLT-4 leukemia = tested on: MOLT-4 leukemia
HOP-92 NSCLC = tested on: HOP-92 NSCLC
SK-MEL-5 melanoma = tested on: SK-MEL-5 melanoma
HCT-116 colon = tested on: HCT-116 colon

Cc1cc(Nc2cc(N)ncn2)c(=O)n2c1C(=O)NC21CCCCC1
inactive: GI50 (SK-MEL-2 melanoma) > 100 µM | GI50 (LOX IMVI melanoma) > 100 µM | GI50 (A549 NSCLC) > 100 µM | GI50 (IGROV1 ovarian) > 100 µM | GI50 (OVCAR-8 ovarian) > 100 µM | GI50 (K-562 leukemia) > 100 µM | GI50 (RXF 393 renal) > 100 µM | GI50 (EKVX NSCLC) > 100 µM | GI50 (M14 melanoma) > 100 µM | GI50 (RPMI-8226 leukemia) > 62.6 µM | GI50 (HOP-62 NSCLC) > 100 µM | GI50 (COLO 205 colon) > 100 µM | GI50 (CAKI-1 renal) > 100 µM | GI50 (NCI-H226 lung) > 100 µM | GI50 (CCRF-CEM leukemia) > 100 µM | GI50 (DU-145 prostate) > 100 µM | GI50 (SNB-75 CNS) > 100 µM | GI50 (SR leukemia) > 69.7 µM | GI50 (NCI-H322M lung) > 100 µM | GI50 (NCI/ADR-RES ovarian) > 100 µM | GI50 (SK-OV-3 ovarian) > 100 µM | GI50 (SNB-19 CNS) > 100 µM | GI50 (MDA-MB-435 melanoma) > 100 µM | GI50 (NCI-H23 lung) > 100 µM | GI50 (UO-31 renal) > 100 µM | GI50 (SF-539 CNS) > 100 µM | GI50 (KM12 colon) > 100 µM | GI50 (TK-10 renal) > 100 µM | GI50 (HCC-2998 colon) > 100 µM | GI50 (OVCAR-4 ovarian) > 100 µM | GI50 (HCT-15 colon) > 100 µM | GI50 (U251 glioblastoma) > 100 µM | GI50 (SW-620 colon) > 100 µM | GI50 (UACC-62 melanoma) > 100 µM | GI50 (MCF7 breast) > 100 µM | GI50 (SK-MEL-28 melanoma) > 100 µM | GI50 (HT29 colon) > 100 µM | GI50 (OVCAR-3 ovarian) > 100 µM | GI50 (SN12C renal) > 100 µM | GI50 (BT-549 breast) > 76.9 µM | GI50 (A498 renal) > 100 µM | GI50 (NCI-H460 NSCLC) > 100 µM | GI50 (UACC-257 melanoma) > 100 µM | GI50 (MOLT-4 leukemia) > 100 µM | GI50 (HOP-92 NSCLC) > 23.2 µM | GI50 (SK-MEL-5 melanoma) > 100 µM | GI50 (HCT-116 colon) > 100 µM
> 100 µM: TGI (SK-MEL-2 melanoma) | TGI (LOX IMVI melanoma) | TGI (A549 NSCLC) | TGI (IGROV1 ovarian) | TGI (OVCAR-8 ovarian) | TGI (K-562 leukemia) | TGI (RXF 393 renal) | TGI (EKVX NSCLC) | TGI (M14 melanoma) | TGI (RPMI-8226 leukemia) | TGI (HOP-62 NSCLC) | TGI (COLO 205 colon) | TGI (CAKI-1 renal) | TGI (NCI-H226 lung) | TGI (CCRF-CEM leukemia) | TGI (DU-145 prostate) | TGI (SNB-75 CNS) | TGI (SR leukemia) | TGI (NCI-H322M lung) | TGI (NCI/ADR-RES ovarian) | TGI (SK-OV-3 ovarian) | TGI (SNB-19 CNS) | TGI (MDA-MB-435 melanoma) | TGI (NCI-H23 lung) | TGI (UO-31 renal) | TGI (SF-539 CNS) | TGI (KM12 colon) | TGI (TK-10 renal) | TGI (HCC-2998 colon) | TGI (OVCAR-4 ovarian) | TGI (HCT-15 colon) | TGI (U251 glioblastoma) | TGI (SW-620 colon) | TGI (UACC-62 melanoma) | TGI (MCF7 breast) | TGI (SK-MEL-28 melanoma) | TGI (HT29 colon) | TGI (OVCAR-3 ovarian) | TGI (SN12C renal) | TGI (BT-549 breast) | TGI (A498 renal) | TGI (NCI-H460 NSCLC) | TGI (UACC-257 melanoma) | TGI (MOLT-4 leukemia) | TGI (HOP-92 NSCLC) | TGI (SK-MEL-5 melanoma) | TGI (HCT-116 colon)
